Laboratory results taken from PubChem BioAssay (NCI).
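At the GI50, growth is halved. Definition used: TGI = concentration required for complete inhibition of growth.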

Legend:
Test in all cases: DTP human tumour cell line panel, 384-well format; in the data active = GI50 below about 0.43 µM; inactive = the rest
[1] = tested on: NCI-H23 lung
[2] = tested on: UACC-257 melanoma
[3] = tested on: SK-MEL-28 melanoma
[4] = tested on: EKVX NSCLC
[5] = tested on: MCF7 breast
[6] = tested on: UO-31 renal
[7] = tested on: SF-539 CNS
[8] = tested on: HOP-62 NSCLC
[9] = tested on: PC-3 prostate
[10] = tested on: 786-0 renal
[11] = tested on: SF-295 CNS
[12] = tested on: HS 578T breast
[13] = tested on: SNB-19 CNS
[14] = tested on: ACHN renal
[15] = tested on: RXF 393 renal
[16] = tested on: DU-145 prostate
[17] = tested on: SW-620 colon
[18] = tested on: IGROV1 ovarian
[19] = tested on: OVCAR-5 ovarian
[20] = tested on: HL-60(TB) leukemia
[21] = tested on: OVCAR-3 ovarian
[22] = tested on: M14 melanoma
[23] = tested on: UACC-62 melanoma
[24] = tested on: MALME-3M melanoma
[25] = tested on: COLO 205 colon
[26] = tested on: KM12 colon
[27] = tested on: MOLT-4 leukemia
[28] = tested on: NCI-H322M lung
[29] = tested on: OVCAR-8 ovarian
[30] = tested on: A549 NSCLC
[31] = tested on: SN12C renal
[32] = tested on: HCC-2998 colon
[33] = tested on: A498 renal
[34] = tested on: TK-10 renal
[35] = tested on: NCI-H522 lung
[36] = tested on: CAKI-1 renal
[37] = tested on: HCT-15 colon
[38] = tested on: K-562 leukemia
[39] = tested on: NCI-H460 NSCLC
[40] = tested on: SK-OV-3 ovarian
[41] = tested on: MDA-MB-435 melanoma
[42] = tested on: RPMI-8226 leukemia
[43] = tested on: MDA-MB-231 breast
[44] = tested on: SNB-75 CNS
[45] = tested on: SR leukemia
[46] = tested on: HOP-92 NSCLC
[47] = tested on: MDA-MB-468 breast
[48] = tested on: CCRF-CEM leukemia
[49] = tested on: SK-MEL-5 melanoma
[50] = tested on: OVCAR-4 ovarian
[51] = tested on: SF-268 CNS
[52] = tested on: BT-549 breast
[53] = tested on: NCI/ADR-RES ovarian
[54] = tested on: LOX IMVI melanoma
[55] = tested on: HT29 colon
[56] = tested on: NCI-H226 lung

C[C@@H]1CCc2ncc(F)cc2[C@H]2CCCN2c2ccn3ncc(c3n2)C(=O)N1
inactive: GI50 [1] 93.8 µM | GI50 [2] 63.3 µM | GI50 [3] 70.2 µM | GI50 [4] > 100 µM | GI50 [5] 18.5 µM | GI50 [6] > 100 µM | GI50 [7] 82.1 µM | GI50 [8] 63.4 µM | GI50 [9] > 100 µM | GI50 [10] 23.6 µM | GI50 [11] 30.1 µM | GI50 [12] 7.78 µM | GI50 [13] > 100 µM | GI50 [14] 28 µM | GI50 [15] 3.44 µM | GI50 [16] > 100 µM | GI50 [17] > 100 µM | GI50 [18] 30.9 µM | GI50 [19] 32.6 µM | GI50 [20] 63.1 µM | GI50 [21] 48.4 µM | GI50 [22] 28.8 µM | GI50 [23] 97.9 µM | GI50 [24] 4.11 µM | GI50 [25] 64.9 µM | GI50 [27] 5.07 µM | GI50 [28] > 100 µM | GI50 [29] > 100 µM | GI50 [30] 61.9 µM | GI50 [31] 20.8 µM | GI50 [32] > 100 µM | GI50 [33] 12.3 µM | GI50 [34] > 100 µM | GI50 [35] 16.2 µM | GI50 [36] 56.1 µM | GI50 [37] > 100 µM | GI50 [38] 7.4 µM | GI50 [39] > 100 µM | GI50 [40] 65 µM | GI50 [41] 57.2 µM | GI50 [42] 2.36 µM | GI50 [43] 18.1 µM | GI50 [44] 25.4 µM | GI50 [45] 1.63 µM | GI50 [46] 14.6 µM | GI50 [47] 17 µM | GI50 [48] 8.73 µM | GI50 [49] > 100 µM | GI50 [50] 10.3 µM | GI50 [51] 94.1 µM | GI50 [52] 76.3 µM | GI50 [53] > 100 µM | GI50 [54] > 100 µM | GI50 [55] 75.5 µM | GI50 [56] 5.37 µM
96.2 µM: TGI [50]
20.4 µM: TGI [27]
> 100 µM: TGI [1] | TGI [2] | TGI [3] | TGI [4] | TGI [5] | TGI [6] | TGI [7] | TGI [8] | TGI [9] | TGI [10] | TGI [11] | TGI [12] | TGI [13] | TGI [14] | TGI [15] | TGI [16] | TGI [17] | TGI [18] | TGI [19] | TGI [20] | TGI [21] | TGI [22] | TGI [23] | TGI [24] | TGI [25] | TGI [26] | TGI [28] | TGI [29] | TGI [30] | TGI [31] | TGI [32] | TGI [33] | TGI [34] | TGI [35] | TGI [36] | TGI [37] | TGI [39] | TGI [40] | TGI [41] | TGI [42] | TGI [43] | TGI [44] | TGI [46] | TGI [48] | TGI [49] | TGI [51] | TGI [52] | TGI [53] | TGI [54] | TGI [55] | TGI [56]
49 µM: TGI [38]
92 µM: TGI [47]
3.2 µM: TGI [45]
